How the values were obtained:
Assay type in all cases: in vivo
[1] = system: abdominal aortic aneurysms in angiotensin II induced ApoE-/- mice; experiment: Abdominal aortic aneurysm model in ApoE-/- mice induced by angiotensin II submerging pump, naringenin gavage; settings: AngII ApoE-/- mice
Procedure: Firstly, 16 weeks of male ApoE^−/− mice were randomly divided into two groups, control group (n=16) and naringenin group (n=15), respectively. And then they were anesthetized by 0.1% pentobarbital sodium, and mini pumps (model 2004, Alzet, Cupertino, Calif.) were subcutaneously submerged; angiotensin II (Sigma-Aldrich, St. Louis, Mo.) dissolved with normal saline was added to the pump, such that drugs can be continuously administrated for 4 weeks at a dosage of 1000 ng/kg/min. From the first day after surgery, gavage was daily performed to mice at constant time points, water gavage in control group, and naringenin gavage (50 mg/kg) in naringenin group. Materials were removed 28 days after gavage. Blood pressure of the mice was measured by tail cuff method with BP-89A sphygmomanometer (Beijing Softron Biotechnology Co., Ltd.), and the mice were weighted. Blood was drawn in inner canthus of the mice, and after centrifuged for 10 minutes at 6000 rotations, supernatant was removed and the blood fat levels of the mice were measured. […] Aortas of mice were fixed and separated. AngII group was the control group of angiotensin II submerging pump and water gavage. AngII+NGN group was the group of angiotensin II submerging pump and naringenin gavage. Four blood vessels were randomly selected in each group for photographing. The results were shown in FIG. 5A, the former two blood vessels in AngII group have significant bulges at suprarenal site, exceeding 50% of the diameters of the blood vessels at adjacent site, and arterial aneurysms are formed. […] Next, the statistics of the onset of abdominal aortic aneurysms in all the mice was performed. In the control group of angiotensin II submerging pump and water gavage, only one of 16 mice died from the fracture of aortic dissection within the first 7 days after submerging pump, another one died from the fracture of abdominal aortic aneurysms 1 week after submerging pump, abdominal aortic aneurysms were generated in 6 of the remaining 14 mice at 28th day after submerging pump. Therefore, in control group of angiotensin II submerging pump, aortic aneurysms were formed in 8 of 16 mice, that is, the morbidity of aortic aneurysms was 50%. And in the group of angiotensin II submerging pump and naringenin gavage, 1 of 15 mice died from the fracture of aortic aneurysms, only 1 of the remaining mice suffered from abdominal aortic aneurysms at 28 day after submerging pump. Therefore, in the group of angiotensin II submerging pump and naringenin gavage, only two of 15 mice suffered from aortic aneurysms, that is, the morbidity of aortic aneurysms was 13.3%. […] After removing materials from mice, aortas were perfused with 4% paraformaldehyde and fixed, the suprarenal aorta from diaphragm muscle to renal artery branch on the right side was equally divided into two segments, which were put into liquid nitrogen to freeze for 30 s after embedded with OCT. Serial sections were performed, the thickness of each section was 6 μm, with the spacing of 300 μm, and continuous 16 sections were performed on each mouse. H.E. staining was used to determine the diameters of abdominal aortas of mice, the diameters were measured and the maximum diameter was selected therefrom. The maximum diameter was compared with the diameter of adjacent site, and if the maximum diameter exceeds 50% of diameter of the adjacent site, it can be considered that the mouse suffered from an abdominal aortic aneurysm. […] We used Gomori staining to determine the fracture situation of the elastic lamina of abdominal aortas of mice, and statistics was performed. The results were shown in FIG. 6B, the fracture of the elastic lamina of abdominal aortas of mice decreases after naringenin gavage, and the mice detected in each group are all 6 mice. The data in Figure are an average value ±standard deviation.

[2] = Biochemical indexes, body weight and blood pressure of angiotensin II induced ApoE-/- mice; settings: naringenin 50 mg/kg gavage 28 days
Procedure: Firstly, 16 weeks of male ApoE^−/− mice were randomly divided into two groups, control group (n=16) and naringenin group (n=15), respectively. And then they were anesthetized by 0.1% pentobarbital sodium, and mini pumps (model 2004, Alzet, Cupertino, Calif.) were subcutaneously submerged; angiotensin II (Sigma-Aldrich, St. Louis, Mo.) dissolved with normal saline was added to the pump, such that drugs can be continuously administrated for 4 weeks at a dosage of 1000 ng/kg/min. From the first day after surgery, gavage was daily performed to mice at constant time points, water gavage in control group, and naringenin gavage (50 mg/kg) in naringenin group. Materials were removed 28 days after gavage. Blood pressure of the mice was measured by tail cuff method with BP-89A sphygmomanometer (Beijing Softron Biotechnology Co., Ltd.), and the mice were weighted. Blood was drawn in inner canthus of the mice, and after centrifuged for 10 minutes at 6000 rotations, supernatant was removed and the blood fat levels of the mice were measured.

[3] = system: aortic aneurysms in angiotensin II induced ApoE knockout mice; experiment: Formed aortic aneurysms, ApoE knockout mice, second round of angiotensin II submerging pump with naringenin gavage
Procedure: In addition, we used the method of angiotensin II subcutaneous submerging pump for 28 days (1,000 ng/kg/min), to induce abdominal aortic aneurysms on 20 weeks of male ApoE knockout mice (totally 40 mice) and used ultrasound to detect the diameters of the abdominal aortas. The diameter greater than 50% of diameter of adjacent blood vessel was used as a standard of the onset of an aortic aneurysm, and 28 mice suffered from aortic aneurysms 28 days later.
Angiotensin II submerging pump was continuously given to all the mice for 28 days. […] In the mice which had suffered from aortic aneurysms previously, 4 mice in the 14 mice by water gavage died from fracture of aortic aneurysms, the other 10 survived mice all suffered from serious aortic aneurysms (the average diameter reaches 3.00±0.58 mm).

[4] = AngII 1000 ng/kg/min ApoE-/- mice

Compound: O=C1C[C@@H](c2ccc(O)cc2)Oc2cc(O)cc(O)c21 [naringenin]
- morbidity of aortic aneurysms ([1]; naringenin 50 mg/kg gavage 28 days, 15 mice, control 50%): 13.3%
- formation of abdominal aortic aneurysms (vascular photos) ([1]; naringenin 50 mg/kg gavage 28 days, FIG. 5A): reduce the formation of abdominal aortic aneurysms
- maximum diameter of suprarenal abdominal aortas (H.E. staining) ([1]; naringenin gavage, 11 mice per group, FIG. 6A): significantly decreases
- fracture of the elastic lamina of abdominal aortas (Gomori staining) ([1]; naringenin gavage, FIG. 6B): decreases
- Dissection (number of mice) ([1]; naringenin gavage, of 15 mice): 0
- Fracture (number of mice) ([1]; naringenin gavage, of 15 mice): 1
- Without aneurysm (number of mice) ([1]; naringenin gavage, of 15 mice): 13
- aneurysm (number of mice) ([1]; naringenin gavage, of 15 mice, 28th day): 1
- Body weight [2, 4]: 28.9 ± 2.03 g
- Cholesterol [2, 4]: 8.46 ± 2.45 mmol
- High density lipoprotein [2, 4]: 56.5 ± 5.97 mg/deciliter
- Low density lipoprotein [2, 4]: 44.1 ± 15.9 mg/deciliter
- Triglyceride [2, 4]: 0.69 ± 0.35 mmol
- Blood pressure ([2]; AngII 1000 ng/kg/min ApoE-/- mice, tail cuff method): 136.6 ± 14.27 mmHg
- blood pressure and body weight ([2]; AngII ApoE-/- mice): does not have an effect
- levels of cholesterol, triglyceride, and low density lipoprotein ([2]; AngII ApoE-/- mice): reduces
- survival after the second round of angiotensin II ([3]; ApoE knockout mice with previously formed aneurysms, 14 mice, naringenin gavage, 4 of 14 died in water group): all normally survived
- maximum diameter of the blood vessels (abdominal aorta, ultrasound) ([3]; ApoE knockout mice with previously formed aneurysms, naringenin gavage, second AngII round, water group 3.00±0.58): 1.62±0.45 mm
- number of mice in which aortic aneurysms were observed ([3]; ApoE knockout mice with previously formed aneurysms, of 14 mice, naringenin gavage, second AngII round 28 days): 5
- incidence rate of aortic aneurysms ([3]; ApoE knockout mice without aneurysm after first AngII round, 6 mice, second AngII round 28 days with naringenin gavage, control 50%): 16%
